Source: patent US11447531B2, “Cleavable peptides and insecticidal and nematicidal proteins comprising same” (Vestaron Corporation, priority 2016, dated 2022)

system: insect and/or nematode protease (X condition); assay: Round 2 and spacer FRET cleavage, X (insect) cleavage condition; assay type: biochemical; details: Round 2 FRET, X-Y combinations
Procedure: Round 2 data from FRET molecules that represented a subset of binary combinations based on the observed top hits in Round 1 provided a hierarchical ranking of the various binary combinations. Round 2 FRET molecules were synthesized, resuspended, and tested in cleavage enzyme assays as described above in Round 1. Many combinations of binary cleavable linking peptides were tested against LEP, COLEOP and SGF conditions.
Data from the Round 2 FRET that exemplifies the combination of both X and Y cleavability in a binary or tertiary peptide are presented in Table 6.
To screen for potential spacers, FRET peptides were ordered as the binary peptide ALKLFVZ1Z2 and varied amino acids in positions Z1 and Z2. Some of the amino acids were screened as individuals and some were screened as pools. The peptides were re-suspended using 50% acetonitrile in water at a concentration of 2 μM of each peptide. For the one containing more than one FRET peptide, they were re-suspended so that each peptide was as 2 μM (assuming an equal portion of each one). These were then re-suspended and screened as described above for Round 1. The data does confirm that some amino acids in the Z position are more favorable than others. […] The greater the value of the slope in Table 7 the greater the activity of the amino acid when part of a spacer. The column in Table 7 labeled “Slope” indicates the speed of cleavage of the Linker.

Substance	% of Max Slope, X
ALKLFVGS (cleavable linker)	100%
IFVALKGS (cleavable linker)	69%
LFVALKGS (cleavable linker)	92%
LFVRLRGS (cleavable linker)	94%
LKLFVGS (cleavable linker)	98%
LRLFVGS (cleavable linker)	74%

system: CEW gut extract; assay: not given; assay type: biochemical, Helicoverpa zea; details: not given

Substance	cleavage of linking peptide in CEW gut extract (His-tagged western blot)
ALKLFVGS (cleavable linker)	digestion and disappearance of the protein band
IFVRLRGS (cleavable linker)	digestion and disappearance of the protein band
IGER (listed as Pisum sativum) [control peptide that is only cleaved in insects, reference compound]	only cleaves in the CEW gut extract

system: gut enzymes of Southern Corn Rootworm; assay: FRET peptide cleavage by coleopteran gut enzymes (COLEOP); details: COLEOP (X); pooled FRET screening Round 1; slope of fluorescence over 10 minutes, steepest slope = 100%; representative cleavable sequences

Substance	% of Max Slope
AIK	70%
AIR	70%
ALK	70%
ALR	70%
IKA	56%
IKN	100%
IKQ	100%
IKS	68%
IKT	68%
IKV	56%
INK	56%
INR	56%
IQK	56%
IQR	56%
IRN	100%
IRQ	100%
IRS	68%
IRT	68%
KIK	83%
KIR	83%
KLK	83%
KLR	83%
LKN	100%
LKQ	100%
LKS	68%

Substance	% of Max Slope
LKT	68%
LNK	56%
LNR	56%
LQK	56%
LQR	56%
LRN	100%
LRQ	100%
LRS	68%
LRT	68%
NIK	74%
NIR	74%
NLK	74%
NLR	74%
QIK	74%
QIR	74%
QLK	74%
QLR	74%
RIK	83%
RIR	83%
RLK	83%
RLR	83%
VIK	70%
VIR	70%
VLK	70%
VLR	70%

same assay, conditions: COLEOP (X); pooled FRET screening; failed cleavable sequences

Substance	% of Max Slope
IKN	0%
IKQ	0%
IRN	0%
IRQ	0%
LKN	−2%

same assay, conditions: insect (COLEOP) simulated gut environment

Substance	COLEOP cleavage (in words)
ALKLFV (cleavable linker)	rapid
IFVRLR (cleavable linker)	rapid

system: gut enzymes of Corn Earworm; assay: FRET peptide cleavage by lepidopteran gut enzymes (LEP); assay type: biochemical, Helicoverpa zea; details: LEP (X); pooled FRET screening Round 1; slope of fluorescence over 10 minutes, steepest slope = 100%; representative cleavable sequences
Text: Corn Earworm insects were obtained commercially from Benzon Research (Carlisle, Pa.) as eggs. Hatched larvae were raised on artificial diet until ⅘^th instar (20 mm long) before guts were isolated. Before gut extract, larvae were anesthetized using CO2. The larva was then pinned on the dissection plate at both the head and the tail. Using dissection scissors, the cuticle was nicked. The dissection scissors were then inserted into the nick and the […] along the insect. The cuticle was then carefully pulled back and pinned open to reveal the digestive track. Using DI water, the insect was thoroughly rinsed to remove hemolymph. The gut was then excised with tweezers and placed in a solution of 500 μL of 200 mM Tris-HCl pH 8.1 150 mM NaCl (assay buffer). The tube was pre-weighed and post-weighed to calculate the total amount of gut added. CEW gut was diluted to a stock concentration of 7 mg/ml (10×) in 200 mM Tris-HCl pH 8.1 150 mM NaCl. This was diluted fresh each plate by 20× with the assay buffer.

Substance	% of Max Slope
AKF	93%
AKS	90%
AKT	90%
AKY	93%
ARF	93%
ARS	90%
ART	90%
ARY	93%
ISK	89%
ISR	89%
ITK	89%
ITR	89%
KKF	92%
KKS	93%
KKT	93%
KKY	92%
KRF	92%
KRS	93%
KRT	93%
KRY	92%
KSK	90%
KSR	90%
KTK	90%
KTR	90%
LSK	89%

Substance	% of Max Slope
LTR	89%
PKK	100%
PKR	100%
PRK	100%
PRR	100%
RKF	92%
RKS	93%
RKT	93%
RKY	92%
RRF	92%
RRS	93%
RRT	93%
RRY	92%
RSK	90%
RSR	90%
RTK	90%
RTR	90%
VKF	93%
VKS	90%
VKT	90%
VKY	93%
VRF	93%
VRS	90%
VRT	90%
VRY	93%

same assay, conditions: LEP (X); pooled FRET screening; failed cleavable sequences

Substance	% of Max Slope
PKK	0%
PKR	0%
PRK	0%
PRR	0%
VRY	0%

same assay, conditions: insect (LEP) simulated gut environment

Substance	LEP cleavage (in words)
ALKLFV (cleavable linker)	rapid
IFVRLR (cleavable linker)	rapid

biological target: T1, pepsin from porcine gastric mucosa (Sus scrofa, UniProt P00791); assay: not given; assay type: biochemical; details: not given
T1 construct: from tissue; host or cells: porcine gastric mucosa
T1 sequence (P00791 60-385): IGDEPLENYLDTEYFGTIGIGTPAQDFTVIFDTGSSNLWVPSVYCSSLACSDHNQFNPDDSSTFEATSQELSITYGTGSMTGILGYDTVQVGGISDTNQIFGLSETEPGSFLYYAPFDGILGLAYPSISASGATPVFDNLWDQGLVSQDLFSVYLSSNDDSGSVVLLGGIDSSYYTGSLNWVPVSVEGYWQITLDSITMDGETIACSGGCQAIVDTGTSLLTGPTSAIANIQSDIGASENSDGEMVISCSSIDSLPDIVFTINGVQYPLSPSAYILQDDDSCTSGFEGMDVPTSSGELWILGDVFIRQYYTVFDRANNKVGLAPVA

Substance	cleavage of linking peptide in SGF (His-tagged western blot)
ALKLFVGS (cleavable linker)	digestion and disappearance of the protein band
IFVRLRGS (cleavable linker)	digestion and disappearance of the protein band
IGER (listed as Pisum sativum) [control peptide that is only cleaved in insects, reference compound]	retention of the intact protein band

system: gut extract isolated from Southern Corn Rootworm; assay: not given; assay type: biochemical, Diabrotica undecimpunctata; details: not given

Substance	cleavage of linking peptide in SCR gut extract (His-tagged western blot)
ALKLFVGS (cleavable linker)	digestion and disappearance of the protein band
IFVRLRGS (cleavable linker)	digestion and disappearance of the protein band
IGER (listed as Pisum sativum) [control peptide that is only cleaved in insects, reference compound]	retention of the intact protein band

biological target: T2, pepsin or simulated human gastric fluid (SGF) (Sus scrofa, UniProt P00791); assay: not given; assay type: biochemical; details: not given
T2 construct: purchased Sigma P6887
T2 sequence (P00791 60-385): as above

Substance	cleavability by human gastrointestinal proteases	% of Max Slope	SGF cleavage (in words)	% of Max Slope, Y
AAPF [reference compound]	neither FRET nor protein showed any cleavability			
AFF		63%		
AFY		63%		
AIF		78%		
ALF		78%		
ALKLFV (cleavable linker)			rapid	
ALKLFVGS (cleavable linker)				88%
ALY		78%		
AYF		63%		
DFF		66%		
DFY		66%		
DYF		66%		
EFF		66%		
EFY		66%		
EYF		66%		
FFA		84%		
FFI		78%		
FFL		78%		
FFV		84%		
FYA		84%		
FYI		78%		
FYL		78%		
FYV		84%		
IFA		65%		
IFV		65%		
IFVALKGS (cleavable linker)				88%
IFVRLR (cleavable linker)			rapid	

Substance	cleavability by human gastrointestinal proteases	% of Max Slope	SGF cleavage (in words)	% of Max Slope, Y
IIF		63%		
ILF		63%		
ILY		63%		
LFA		65%		
LFV		65%		
LFVALKGS (cleavable linker)				76%
LFVRLRGS (cleavable linker)				74%
LIF		63%		
LIY		63%		
LKLFVGS (cleavable linker)				67%
LLF		63%		
LRLFVGS (cleavable linker)				75%
LYA		65%		
LYF		100%		
LYV		65%		
LYY		100%		
VFF		63%		
VFY		63%		
VIF		78%		
VLF		78%		
VLY		78%		
VYF		63%		
YFA		84%		
YFI		78%		
YFL		78%		
YFV		84%		
YYL		78%		
